The record followed here is patent publication US8802597B2, “Herbicidal pyrimidines” (E I du Pont de Nemours and Company, priority 2003, dated 2014).

Structures are written as SMILES. Like-named read-outs stand apart in the source and are kept apart here.

Assay in all cases: Test C pre/postemergence
Holding throughout (type): in vivo

Experiment [1] has as its system velvetleaf (Abutilon theophrasti). The settings on record: for pest or weed control at 62 g/ha / pest or weed control at 125 g/ha / pest or weed control at 250 g/ha / pest or weed control at 500 g/ha: Abutilon theophrasti. The procedure, abridged: (§1)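 Injury scored visually 12–14 days after application on 0–100 scale (100 = complete control), relative to controls. Compounds, formulated with surfactant in non-phytotoxic solvent, applied to soil at planting (pre) or to 1- to 4-leaf plants 2–18 cm tall (post) in greenhouse.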

The subject of experiment [2] is yellow nutsedge (Cyperus esculentus). The settings on record: for pest or weed control at 62 g/ha / pest or weed control at 125 g/ha / pest or weed control at 250 g/ha / pest or weed control at 500 g/ha: Cyperus. The method, boiled down:
as §1

For experiment [3], the system named is eastern black nightshade (Solanum ptycanthum). As to conditions: Preemergence; for pest or weed control at 62 g/ha / pest or weed control at 125 g/ha / pest or weed control at 250 g/ha / pest or weed control at 500 g/ha: Solanum, pre-emergence, read-out: Plant response rating, Nightshade. The procedure, abridged: as §1
Where [4] appears, read: post-emergence, Postemergence, 62 g ai/ha, scale 0 to 100 (0 no effect, 100 complete control), read-out: Velvetleaf plant response rating.
Where [5] appears, read: post-emergence, Postemergence, 125 g ai/ha, scale 0 to 100 (0 no effect, 100 complete control), read-out: Velvetleaf plant response rating.
Where [6] appears, read: post-emergence, Postemergence, 250 g ai/ha, scale 0 to 100, read-out: Plant response rating, Velvetleaf.
The mark [7] stands for this setting: post-emergence, Postemergence, 500 g ai/ha, scale 0 to 100, read-out: Plant response rating, Velvetleaf.
Where [8] appears, read: pre-emergence, Preemergence, 62 g ai/ha, scale 0 to 100, 0 no effect, 100 complete control, read-out: Plant response rating, Velvetleaf.
Setting [9] is: pre-emergence, Preemergence, 125 g ai/ha, scale 0 to 100, read-out: Plant response rating, Velvetleaf.
Setting [10] is: pre-emergence, Preemergence, 250 g ai/ha, scale 0 to 100, read-out: Plant response rating, Velvetleaf.
[11] abbreviates: pre-emergence, Preemergence, 500 g ai/ha, scale 0 to 100, read-out: Plant response rating, Velvetleaf.
[12] abbreviates: post-emergence, Postemergence, 62 g ai/ha, scale 0 to 100 (0 no effect, 100 complete control), read-out: Nutsedge, Yellow plant response rating.
The mark [13] stands for this setting: post-emergence, Postemergence, 125 g ai/ha, scale 0 to 100 (0 no effect, 100 complete control), read-out: Nutsedge, Yellow plant response rating.
Setting [14] is: post-emergence, Postemergence, 250 g ai/ha, scale 0 to 100, read-out: Plant response rating, Nutsedge, Yellow.
Where [15] appears, read: post-emergence, Postemergence, 500 g ai/ha, scale 0 to 100, read-out: Plant response rating, Nutsedge, Yellow.
Setting [16] is: pre-emergence, Preemergence, 62 g ai/ha, scale 0 to 100, 0 no effect, 100 complete control, read-out: Plant response rating, Nutsedge, Yellow.
[17] abbreviates: pre-emergence, Preemergence, 125 g ai/ha, scale 0 to 100, read-out: Plant response rating, Nutsedge, Yellow.
The mark [18] stands for this setting: pre-emergence, Preemergence, 250 g ai/ha, scale 0 to 100, read-out: Plant response rating, Nutsedge, Yellow.
The mark [19] stands for this setting: pre-emergence, Preemergence, 500 g ai/ha, scale 0 to 100, read-out: Plant response rating, Nutsedge, Yellow.
Setting [20] is: 62 g ai/ha, scale 0 to 100, 0 no effect, 100 complete control.
Setting [21] is: Postemergence, 62 g ai/ha, scale 0 to 100 (0 no effect, 100 complete control).
Where [22] appears, read: Postemergence, 125 g ai/ha, scale 0 to 100 (0 no effect, 100 complete control).
Where [23] appears, read: Postemergence, 250 g ai/ha, scale 0 to 100.
Where [24] appears, read: Postemergence, 500 g ai/ha, scale 0 to 100.
Setting [25] is: Preemergence, 62 g ai/ha, scale 0 to 100, 0 no effect, 100 complete control.
The mark [26] stands for this setting: Preemergence, 125 g ai/ha, scale 0 to 100.
[27] abbreviates: Preemergence, 250 g ai/ha, scale 0 to 100.
Where [28] appears, read: Preemergence, 500 g ai/ha, scale 0 to 100.
[29] abbreviates: Preemergence, 16 g ai/ha, scale 0 to 100, 0 no effect, 100 complete control.
[30] abbreviates: Preemergence, 31 g ai/ha, scale 0 to 100, 0 no effect, 100 complete control.

For `Nc1nc(C2CC2)nc(C(=O)OCc2ccccc2)c1Br` [Compound 22, phenylmethyl 6-amino-5-bromo-2-cyclopropyl-4-pyrimidinecarboxylate], the pest or weed control at 62 g/ha came to 55% in experiment [1] (setting [4]); 90% in experiment [1] (setting [8]); 0% in experiment [2] (setting [12]); 0% in experiment [2] (setting [16]); 100% in experiment [3] (setting [20]). In addition, the pest or weed control at 125 g/ha in experiment [1] (setting [5]) worked out at 60%; in experiment [1] (setting [9]), 95%; in experiment [2] (setting [13]), 0%; in experiment [2] (setting [17]) it was 0%; in experiment [3] (125 g ai/ha, scale 0 to 100), 100%. The pest or weed control at 250 g/ha stood at 90% in experiment [1] (setting [6]); 100% in experiment [1] (setting [10]); 0% in experiment [2] (setting [14]); 95% in experiment [2] (setting [18]); 100% in experiment [3] (250 g ai/ha, scale 0 to 100). Further, the pest or weed control at 500 g/ha in experiment [1] (setting [7]) was 95%; in experiment [1] (setting [11]) it was 100%; in experiment [2] (setting [15]), 0%; in experiment [2] (setting [19]) it was 95%; in experiment [3] (500 g ai/ha, scale 0 to 100), 100%.

Turning to `Nc1nc(C2CC2)nc(C=NO)c1Br` [Compound 27], the “Velvetleaf plant response rating” value in experiment [1] (setting [21]) and in experiment [1] (setting [22]) was 0 each time. Further, the “Plant response rating, Velvetleaf” value is reported as 0 in experiment [1] (setting [23]); 30 in experiment [1] (setting [24]); 0 in experiment [1] (setting [25]); 0 in experiment [1] (setting [26]); 50 in experiment [1] (setting [27]); 70 in experiment [1] (setting [28]). Further, the “Nutsedge, Yellow plant response rating” value in experiment [2] (setting [21]) and in experiment [2] (setting [22]) was 0 each time. In addition, the “Plant response rating, Nutsedge, Yellow” value in experiment [2] (setting [23]) worked out at 0; in experiment [2] (setting [24]), 0; in experiment [2] (setting [25]) it was 0; in experiment [2] (setting [26]), 0; in experiment [2] (setting [27]) it was 0; in experiment [2] (setting [28]), 20. The “Plant response rating, Nightshade” value stood at 0 in experiment [3] (setting [20]); 70 in experiment [3] (125 g ai/ha, scale 0 to 100); 100 in experiment [3] (250 g ai/ha, scale 0 to 100); 100 in experiment [3] (500 g ai/ha, scale 0 to 100).

`CCOC(=O)C(OC(C)=O)c1nc(C2CC2)nc(N)c1Br` (stereo not drawn) [Compound 47]: the “Plant response rating (scale of 0 to 100), Velvetleaf” value is given as 0 in experiment [1] (Postemergence, 16 g ai/ha) and 0 in experiment [1] (Postemergence, 31 g ai/ha). In addition, the “Velvetleaf plant response rating” value in experiment [1] (setting [21]) and in experiment [1] (setting [22]) was 0 throughout. For the same compound, the “Plant response rating, Velvetleaf” value is 0 in experiment [1] (setting [29]), 20 in experiment [1] (setting [30]), 20 in experiment [1] (setting [25]) and 50 in experiment [1] (setting [26]). Moreover, the “Plant response rating (scale of 0 to 100), Nutsedge, Yellow” value was 0 in experiment [2] (Postemergence, 16 g ai/ha) and 0 in experiment [2] (Postemergence, 31 g ai/ha). In addition, the “Nutsedge, Yellow plant response rating” value in experiment [2] (setting [21]) and in experiment [2] (setting [22]) was 0 each time. Further, the “Plant response rating, Nutsedge, Yellow” value in experiment [2] (setting [29]), in experiment [2] (setting [30]), in experiment [2] (setting [25]) and in experiment [2] (setting [26]) was 0 in each case. The “Plant response rating, Nightshade” value in experiment [3] (16 g ai/ha, scale 0 to 100, 0 no effect, 100 complete control) came out at 80; in experiment [3] (31 g ai/ha, scale 0 to 100, 0 no effect, 100 complete control) it was 85; in experiment [3] (setting [20]), 95; in experiment [3] (125 g ai/ha, scale 0 to 100), 100.

As to `CCOC(=O)c1nc(C2CC2)nc(N)c1Cl` [Compound 4, ethyl 6-amino-5-chloro-2-cyclopropyl-4-pyrimidinecarboxylate], the pest or weed control at 62 g/ha in experiment [1] (setting [4]) turned out to be 80%; in experiment [1] (setting [8]), 75%; in experiment [2] (setting [12]), 0%; in experiment [2] (setting [16]), 0%; in experiment [3] (setting [20]) it was 100%. In addition, the pest or weed control at 125 g/ha is 100% in experiment [1] (setting [5]); 95% in experiment [1] (setting [9]); 0% in experiment [2] (setting [13]); 0% in experiment [2] (setting [17]); 100% in experiment [3] (125 g ai/ha, scale 0 to 100). Further, the pest or weed control at 250 g/ha is 100% in experiment [1] (setting [6]); 95% in experiment [1] (setting [10]); 0% in experiment [2] (setting [14]); 15% in experiment [2] (setting [18]); 100% in experiment [3] (250 g ai/ha, scale 0 to 100). Further, the pest or weed control at 500 g/ha in experiment [1] (setting [7]) came out at 100%; in experiment [1] (setting [11]), 100%; in experiment [2] (setting [15]), 0%; in experiment [2] (setting [19]), 80%; in experiment [3] (500 g ai/ha, scale 0 to 100) it was 100%.

Consider `COC(=O)CNc1nc(C2CC2)nc(C(=O)OC)c1Br` [Compound 10], for which the “Velvetleaf plant response rating” value in experiment [1] (setting [21]) amounted to 65; in experiment [1] (setting [22]) it was 70. In addition, the “Plant response rating, Velvetleaf” value in experiment [1] (setting [23]) came to 80; in experiment [1] (setting [24]), 90; in experiment [1] (setting [25]), 0; in experiment [1] (setting [26]), 0; in experiment [1] (setting [27]) it was 0; in experiment [1] (setting [28]) it was 60. Further, the “Nutsedge, Yellow plant response rating” value in experiment [2] (setting [21]) and in experiment [2] (setting [22]) was 0 in each case. The “Plant response rating, Nutsedge, Yellow” value in experiment [2] (setting [23]), in experiment [2] (setting [24]), in experiment [2] (setting [25]) and in experiment [2] (setting [26]) was 0 throughout. The “Plant response rating, Nightshade” value in experiment [3] (250 g ai/ha, scale 0 to 100) is on record as 20; in experiment [3] (500 g ai/ha, scale 0 to 100) it was 95.
